From paper PMC6131557, “Selective Cytotoxicity of Dihydroorotate Dehydrogenase Inhibitors to Human Cancer Cells Under Hypoxia and Nutrient-Deprived Conditions” (Frontiers in Pharmacology, 2018)
Where two headings read alike, the source gives them in different places.

Experiments:
DMS273 = test: 39-cancer cell panel assay: DMS273; format: cell-based; conditions: Homo sapiens, DMS-273, Lu
ACHN = test: 39-cancer cell panel assay: ACHN; format: cell-based; conditions: Homo sapiens, Re
DU-145 = test: 39-cancer cell panel assay: DU-145; format: cell-based; conditions: Homo sapiens, Pro
HBC-5 = test: 39-cancer cell panel assay: HBC-5; format: cell-based; conditions: Homo sapiens, HBC5, Br
RXF-631L = test: 39-cancer cell panel assay: RXF-631L; format: cell-based; conditions: Homo sapiens, Re
NCI-H460 = test: 39-cancer cell panel assay: NCI-H460; format: cell-based; conditions: Homo sapiens, Lu
HT-29 = test: 39-cancer cell panel assay: HT-29; format: cell-based; conditions: Homo sapiens, Co
A549 = test: 39-cancer cell panel assay: A549; format: cell-based; conditions: Homo sapiens, Lu
Complex II–III = test: Succinate-cytochrome c reductase (complexes II–III) activity, bovine mitochondria; format: biochemical
Experimental: (§1) Recombinant human DHODH was purified, crystallized, and assayed as previously described ([Inaoka et al., 2016]) without modification. Bovine mitochondrial fractions were prepared as previously described ([Kita et al., 1988]) and NADH dehydrogenase (complex I), succinate:quinone reductase (complex II), quinol oxidase (complexes III–IV), NADH-cytochrome c reductase (complexes I–III), and succinate-cytochrome c (complexes II–III) activities were assayed following an established method ([Takamiya et al., 1986]; [Miyadera et al., 2001]; [Matsumoto et al., 2008]; [Kido et al., 2010]; [Nihashi et al., 2017]).

SNB-75 = test: 39-cancer cell panel assay: SNB-75; format: cell-based; conditions: Homo sapiens, CNS
OVCAR-8 = test: 39-cancer cell panel assay: OVCAR-8; format: cell-based; conditions: Homo sapiens, Ov
LOX-IMVI = test: 39-cancer cell panel assay: LOX-IMVI; format: cell-based; conditions: Homo sapiens, Me
MKN28 = test: 39-cancer cell panel assay: MKN28; format: cell-based; conditions: Homo sapiens, MKN-28, St
MKN1 = test: 39-cancer cell panel assay: MKN1; format: cell-based; conditions: Homo sapiens, MKN-1, St
Complex III = molecular target: T1, Complex III (Bos taurus, UniProt P00157); test: Quinol oxidase (complex III) activity, bovine mitochondria; format: biochemical; conditions: ubiquinol oxidase activity
T1 construct: from tissue; host or cells: bovine mitochondrial fraction / sub-mitochondrial particles

HCT-15 = test: 39-cancer cell panel assay: HCT-15; format: cell-based; conditions: Homo sapiens, Co
SF-268 = test: 39-cancer cell panel assay: SF-268; format: cell-based; conditions: Homo sapiens, CNS
MKN74 = test: 39-cancer cell panel assay: MKN74; format: cell-based; conditions: Homo sapiens, MKN-74, St
NCI-H226 = test: 39-cancer cell panel assay: NCI-H226; format: cell-based; conditions: Homo sapiens, Lu
SNB-78 = test: 39-cancer cell panel assay: SNB-78; format: cell-based; conditions: Homo sapiens, CNS
SK-OV-3 = test: 39-cancer cell panel assay: SK-OV-3; format: cell-based; conditions: Homo sapiens
HBC-4 = test: 39-cancer cell panel assay: HBC-4; format: cell-based; conditions: Homo sapiens, HBC4, Br
SF-539 = test: 39-cancer cell panel assay: SF-539; format: cell-based; conditions: Homo sapiens, CNS
St-4 = test: 39-cancer cell panel assay: St-4; format: cell-based; conditions: Homo sapiens
Complex II = molecular target: T2, Complex II (Bos taurus, UniProt P35720+Q3T189+Q95123); test: Succinate:quinone reductase (complex II) activity, bovine mitochondria; format: biochemical
T2 construct: from tissue; host or cells: bovine mitochondrial fraction / sub-mitochondrial particles
T2 sequence (P31039 45-665 partner limits assumed): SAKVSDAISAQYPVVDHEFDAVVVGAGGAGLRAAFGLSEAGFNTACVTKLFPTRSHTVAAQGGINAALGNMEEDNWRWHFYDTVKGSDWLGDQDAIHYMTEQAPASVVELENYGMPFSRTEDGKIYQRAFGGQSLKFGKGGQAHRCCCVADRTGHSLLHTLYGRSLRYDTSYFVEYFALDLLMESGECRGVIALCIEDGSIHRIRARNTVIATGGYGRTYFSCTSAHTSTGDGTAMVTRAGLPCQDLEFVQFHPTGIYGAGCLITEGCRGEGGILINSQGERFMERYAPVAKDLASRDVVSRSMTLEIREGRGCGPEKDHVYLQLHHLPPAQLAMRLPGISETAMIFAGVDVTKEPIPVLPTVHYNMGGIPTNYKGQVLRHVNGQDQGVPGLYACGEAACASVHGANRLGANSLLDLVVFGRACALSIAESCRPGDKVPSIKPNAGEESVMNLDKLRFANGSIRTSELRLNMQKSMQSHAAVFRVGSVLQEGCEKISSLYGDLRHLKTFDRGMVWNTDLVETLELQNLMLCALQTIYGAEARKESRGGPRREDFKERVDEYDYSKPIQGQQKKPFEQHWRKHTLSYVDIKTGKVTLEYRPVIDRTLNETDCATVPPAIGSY
T2 sequence (Q3T189 29-280): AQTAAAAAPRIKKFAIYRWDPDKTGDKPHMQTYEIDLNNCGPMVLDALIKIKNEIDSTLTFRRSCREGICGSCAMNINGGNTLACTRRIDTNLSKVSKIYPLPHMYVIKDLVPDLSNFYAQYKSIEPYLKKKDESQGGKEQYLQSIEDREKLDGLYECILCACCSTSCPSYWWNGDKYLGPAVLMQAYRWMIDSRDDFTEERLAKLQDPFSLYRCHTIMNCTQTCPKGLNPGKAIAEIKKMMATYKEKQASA
T2 sequence (P35720 30-169): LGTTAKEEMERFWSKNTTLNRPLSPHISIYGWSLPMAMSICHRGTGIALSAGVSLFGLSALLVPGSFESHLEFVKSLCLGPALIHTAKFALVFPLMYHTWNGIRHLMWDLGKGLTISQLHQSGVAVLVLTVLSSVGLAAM
T2 sequence (Q95123 56-158): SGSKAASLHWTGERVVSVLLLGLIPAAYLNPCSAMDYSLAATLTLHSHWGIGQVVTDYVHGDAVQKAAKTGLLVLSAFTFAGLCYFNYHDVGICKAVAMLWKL

NCI-H522 = test: 39-cancer cell panel assay: NCI-H522; format: cell-based; conditions: Homo sapiens, Lu
DLD-1 cells = test: Cytotoxicity assay (Cell Counting Kit-8 / WST-8) on DLD-1 cells; format: cell-based, human; conditions: Homo sapiens
Experimental: (§2) For hypoxia and nutrient-deprived culture conditions, cells were incubated under 1% oxygen in glucose and glutamine-free DMEM (Gibco) without FBS.
(§3) DLD-1 or HDF cells were seeded at 2.5 × 10^4 cells/well on a 96-well plate with normal medium, and cultured overnight under normal culture condition. The cells were washed with PBS and the medium was replaced to either normal medium or glucose and glutamine-free DMEM without FBS. Test compounds or DMSO as a control were added to the wells. The cells in normal medium were cultured under normal culture conditions, while cells in nutrient-deprived medium were cultured under hypoxia condition. After 24 or 48 h incubation, the cells were washed with PBS, 100 μl of fresh normal medium, and 10 μl of Cell Counting Kit-8 solution (Donjindo, Japan) was added to each well. After 3 h incubation under normal culture condition, the absorbance was measured at 450 nm using SpectraMax M2e-TUY microplate reader (Molecular Devices). Cell viability of test wells was calculated based on absorbance of control wells containing DMSO according to manufacturer’s protocol.

DMS114 = test: 39-cancer cell panel assay: DMS114; format: cell-based; conditions: Homo sapiens, DMS-114, Lu
MCF-7 = test: 39-cancer cell panel assay: MCF-7; format: cell-based; conditions: Homo sapiens, MCF7, Br
U251 = test: 39-cancer cell panel assay: U251; format: cell-based; conditions: Homo sapiens, U-251, CNS
KM-12 = test: 39-cancer cell panel assay: KM-12; format: cell-based, human; conditions: Co
MDA-MB-231 = test: 39-cancer cell panel assay: MDA-MB-231; format: cell-based; conditions: Homo sapiens, Br
[1] = molecular target: T3, human dihydroorotate dehydrogenase (HsDHODH) (Homo sapiens, UniProt Q02127); test: Inhibition of recombinant human DHODH enzyme activity; format: biochemical; conditions: for IC50: recombinant human DHODH
T3 construct: made in house
T3 sequence (Q02127 whole entry): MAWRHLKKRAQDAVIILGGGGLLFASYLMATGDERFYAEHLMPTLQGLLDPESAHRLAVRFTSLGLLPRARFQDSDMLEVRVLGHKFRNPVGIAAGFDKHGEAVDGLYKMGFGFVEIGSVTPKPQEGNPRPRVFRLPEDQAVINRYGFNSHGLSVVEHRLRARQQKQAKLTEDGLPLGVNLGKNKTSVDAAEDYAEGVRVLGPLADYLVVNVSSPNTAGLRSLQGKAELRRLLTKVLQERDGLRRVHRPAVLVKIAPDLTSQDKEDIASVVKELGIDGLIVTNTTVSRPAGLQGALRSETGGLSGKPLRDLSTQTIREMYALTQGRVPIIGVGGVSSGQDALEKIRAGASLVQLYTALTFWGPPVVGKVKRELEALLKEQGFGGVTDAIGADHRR

NCI-H23 = test: 39-cancer cell panel assay: NCI-H23; format: cell-based; conditions: Homo sapiens, Lu
PC-3 = test: 39-cancer cell panel assay: PC-3; format: cell-based; conditions: Homo sapiens, Pro
HCT-116 = test: 39-cancer cell panel assay: HCT-116; format: cell-based; conditions: Homo sapiens, Co
HDF cells = test: Cytotoxicity assay (Cell Counting Kit-8 / WST-8) on HDF cells; format: cell-based; conditions: Homo sapiens
Experimental: as §2, §3

OVCAR-5 = test: 39-cancer cell panel assay: OVCAR-5; format: cell-based; conditions: Homo sapiens, Ov
BSY-1 = test: 39-cancer cell panel assay: BSY-1; format: cell-based; conditions: Homo sapiens, Br
OVCAR-4 = test: 39-cancer cell panel assay: OVCAR-4; format: cell-based; conditions: Homo sapiens, Ov
HCC2998 = test: 39-cancer cell panel assay: HCC2998; format: cell-based; conditions: Homo sapiens, HCC 2998, Co
MKN7 = test: 39-cancer cell panel assay: MKN7; format: cell-based; conditions: Homo sapiens, MKN-7, St
SF-295 = test: 39-cancer cell panel assay: SF-295; format: cell-based; conditions: Homo sapiens, CNS
OVCAR-3 = test: 39-cancer cell panel assay: OVCAR-3; format: cell-based; conditions: Homo sapiens, Ov
Complex I = test: NADH dehydrogenase (complex I) activity, bovine mitochondria; format: biochemical; conditions: at 5 μM
Experimental: as §1

MKN45 = test: 39-cancer cell panel assay: MKN45; format: cell-based; conditions: Homo sapiens, MKN-45, St
Complexes I–III = test: NADH-cytochrome c reductase (complexes I–III) activity, bovine mitochondria; format: biochemical
Experimental: as §1

mammalian complex III = test system: mammalian complex III; design: method as in Berry et al., 2010; conditions: ref Berry et al., 2010; read-out: IC50 against mammalian complex III; cited from earlier work
[2] = purified enzyme fixed at 10 nM, read-out: IC50 (nM), inhibition of human DHODH

## COC(=O)/C(C)=C/CC/C(C)=C/Cc1c(O)c(Cl)c(C)c(C=O)c1O [Compound 9]
DMS273
  GI50: 3 µM
ACHN
  GI50: 9.9 µM
DU-145
  GI50: 10 µM
HBC-5
  GI50: 28 µM
RXF-631L
  GI50: 8.4 µM
NCI-H460
  GI50: 4.3 µM
HT-29
  GI50: 6.5 µM
A549
  GI50: 4.7 µM
Complex II–III
  IC50: 5.7 ± 0.37 µM
SNB-75
  GI50: 9.7 µM
OVCAR-8
  GI50: 9.1 µM
LOX-IMVI
  GI50: 2.1 µM
MKN28
  GI50: 12 µM
MKN1
  GI50: 14 µM
Complex III
  inhibition at 5 µM: > 80%
HCT-15
  GI50: 0.83 µM
SF-268
  GI50: 8.1 µM
MKN74
  GI50: 14 µM
NCI-H226
  GI50: 13 µM
SNB-78
  GI50: 8.8 µM
SK-OV-3
  GI50: 11 µM
HBC-4
  GI50: 5.6 µM
SF-539
  GI50: 0.54 µM
St-4
  GI50: 7.5 µM
Complex II
  inhibition at 5 µM: 5.3 ± 4.1%
NCI-H522
  GI50: 5.3 µM
DLD-1 cells; read-out: IC50 (μM) DLD-1 (24 h) Hypoxia nutrient (-), DLD-1, 24 h, hypoxia (1% oxygen), nutrient (-)
  IC50: 1.6 ± 0.42 µM
DLD-1 cells; read-out: IC50 (μM) DLD-1 (24 h) Normoxia nutrient (+), DLD-1, 24 h, normoxia, nutrient (+)
  IC50: > 100 µM
DLD-1 cells; DLD-1, 48 h, hypoxia (1% oxygen), nutrient (-), read-out: IC50 (μM) DLD-1 (48 h) Hypoxia nutrient (-)
  IC50: 0.67 ± 0.066 µM
DLD-1 cells; DLD-1, 48 h, normoxia, nutrient (+), read-out: IC50 (μM) DLD-1 (48 h) Normoxia nutrient (+)
  IC50: > 100 µM
DMS114
  GI50: 15 µM
MCF-7
  GI50: 7.3 µM
U251
  GI50: 0.97 µM
KM-12
  GI50 (μM) KM-12: 6.4 µM
MDA-MB-231
  GI50: 14 µM
[1]; [2]
  IC50: ~5 nM
NCI-H23
  GI50: 7.8 µM
PC-3
  GI50: 22 µM
HCT-116
  GI50: 2.5 µM
HDF cells; read-out: IC50 (μM) HDF (24 h) Hypoxia nutrient (-), hypoxia (1% oxygen), nutrient (-)
  IC50: 3.1 ± 0.19 µM
HDF cells; read-out: IC50 (μM) HDF (24 h) Normoxia nutrient (+), normoxia, nutrient (+)
  IC50: > 100 µM
OVCAR-5
  GI50: 12 µM
BSY-1
  GI50: 27 µM
OVCAR-4
  GI50: 11 µM
HCC2998
  GI50: 17 µM
MKN7
  GI50: 13 µM
SF-295
  GI50: 11 µM
OVCAR-3
  GI50: 5.3 µM
Complex I
  Inhibition (%) Complex I: 7.6 ± 4.2%
MKN45
  GI50: 14 µM
Complexes I–III
  IC50: 1 ± 0.02 µM

## CC(/C=C/[C@@]1(C)[C@H](C)CCC(=O)[C@@H]1C)=C\Cc1c(O)c(Cl)c(C)c(C=O)c1O [Compound 10, Ascochlorin]
Mammalian complex III
  IC50: 0.013 µM
Complex II–III
  IC50: 0.0069 ± 0.0002 µM
Complex III
  inhibition at 5 µM: 94 ± 2.4%
Complex II
  inhibition at 5 µM: 3.6 ± 8.5%
[1]; at 1,000 nM, read-out: Inhibition of HsDHODH activity (value in parentheses)
  inhibition at 1 µM: 33%
[1]; Table 6, read-out: IC50 (μM) HsDHODH
  IC50: 2300 ± 1900 nM
[1]; [2]
  IC50: > 1000 nM
Complex I
  Inhibition (%) Complex I: 6.8 ± 4.1%
Complexes I–III
  IC50: 0.0033 ± 0.0001 µM
